According to patent US8569376B2, “Methods and compositions for reducing body fat and adipocytes” (Topokine Therapeutics, Inc., priority 2011, dated 2013):
“Also recorded” adds a separate entry of the source. Marks after values point to notes of the source that are not given here.

Tests used:
dorsocervical fat pad = assay: Randomized double-blind study in HIV lipodystrophy subjects, dorsocervical fat by US/CT; assay type: in vivo; conditions: human, e.g. 0.03% in transdermal vehicle once a day, e.g. after 3 months
Excerpt: The following experiment describes a randomized, double-blind study in human subjects to test whether locally administered Tafluprost reduces fat in the dorsocervical fat pad of HIV-seropositive patients on antiretroviral therapy who are suffering from HIV lipodystrophy. Eligible subjects (for example, n=40) with HIV lipodystrophy and abnormal accumulation of fat on the dorsal neck are entered into a randomized double-blind study. Subjects are randomized in 1:1 fashion to receive either Tafluprost, for example, 0.03%, in a suitable transdermal vehicle, or vehicle alone. The vehicle is, for example, Lipoderm® (PCCA, Houston, Tex.). Unit-dose syringes (for example, 0.5 ml per syringe) are furnished to subjects by a study pharmacist; syringes are unlabeled as to the presence of Tafluprost or vehicle. Subjects are instructed to apply, once a day, the contents of one syringe to the affected area on the back of the neck. Serial ultrasound (US) and/or computed tomography (CT) scans are conducted at the beginning of the study and then at monthly intervals. Treatment continues for 6 months.

human preadipocytes = human preadipocytes in primary cell culture; cited from earlier work
[1] = tested on: adipose tissue and adipocytes; assay: Randomized controlled trial in (db-/db-) mice: histologic examination of treated skin and subcutaneous fat; assay type: in vivo, mouse; conditions: treated flank, after 21 days of 5 mM topical treatment
Method: (§1) A randomized controlled trial was conducted on (db-/db-) mice. Mice six weeks old were prospectively randomized into groups and assigned to the following treatment conditions (n=5 animals per group): [table] At the start of the study, hair on the right flank of each animal was clipped and depilated. Animals were kept in identical conditions and fed ab libitum. Animals were weighed daily. Following 21 consecutive days of treatment, samples of skin and adjacent fat were obtained from the treated flanks, fixed in formalin, and stained with hematoxylin and eosin for histologic examination.

[2] = Randomized controlled trial in (db-/db-) mice, topical to flank: body weight change; assay type: in vivo, mouse; conditions: 21-day study; for Absolute weight change / Relative weight change: 5 mM topical, 0.1 cc to flank daily
Method: as §1

[3] = tested on: peroxisome proliferator-activated receptor-gamma (PPARγ), CCAAT-enhancer-binding protein α (C/EBPα), and lipoprotein lipase; conditions: human preadipocytes; no statistical differences; cited from earlier work

Row | SMILES | reduction in depth and/or cross-sectional area of dorsocervical fat by serial US or CT, compared to vehicle alone (dorsocervical fat pad) | adipocyte differentiation (human preadipocytes) | adipose thickness and adipocyte size in histologic sections, compared to Vehicle [1] | Absolute weight change [2] | Relative weight change [2] [% over Day 0] | weight loss ([2]; topical) | weight gain ([2]; topical) | inhibition of expression of adipogenic genes PPARγ, C/EBPα and lipoprotein lipase [3]
1 | CC(C)OC(=O)CCC/C=C\C[C@@H]1[C@@H](/C=C/C(F)(F)COc2ccccc2)[C@H](O)C[C@@H]1O [Tafluprost] | more reduction in the depth and/or cross-sectional area of dorsocervical fat | 40 % of control | reduced adipose thickness and adipocyte size; also recorded: inhibited adipose tissue and adipocytes | −2.4* g | −8.2 | about 8 % of baseline body weight | – | –
2 | CCNC(=O)CCC/C=C\C[C@@H]1[C@@H](/C=C/[C@@H](O)CCc2ccccc2)[C@H](O)C[C@@H]1O [Bimatoprost] | – | 30 % of control | did not show these effects | 6.4 g | 22.9 | – | 23-24 % of baseline body weight | slightly more inhibition than Tafluprost
